GI50 and TGI data for eleven compounds are collected here from PubChem BioAssay (NCI).

The structures appear in SMILES notation. Values joined by “and” are separate entries in the source; they are usually repeats but may differ in a detail not shown here. Equal values may be shown once.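 Following 48 hours of exposure in 96-well plates, responses at five concentrations were used to interpolate endpoints linearly. Here, GI50 denotes the concentration required for 50% inhibition of growth. TGI: total growth inhibition.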

Among the test systems are EKVX NSCLC; SK-MEL-5 melanoma; SF-539 CNS; MDA-MB-231 breast; RPMI-8226 leukemia; MALME-3M melanoma; UACC-62 melanoma; HL-60(TB) leukemia; MCF7 breast; UO-31 renal.
Assay in all cases: growth of human tumour cells (NCI), 48 h

On to `[Mn+3].[O-][Cl+3]([O-])([O-])O.[O-]c1ccccc1C=NCCN1CC1.[O-]c1ccccc1C=NCCN1CC1`, for which the GI50 in the assay on EKVX NSCLC was 41.3 µM; in the assay on SK-MEL-5 melanoma it was 17.6 µM; with SF-539 CNS it was 30.6 µM; in the assay on MDA-MB-231 breast it was 20.9 µM; in the assay with RPMI-8226 leukemia, 1.36 µM; in the assay on MALME-3M melanoma, 19.7 µM. Also, the GI50 is 16.6 µM in the assay on UACC-62 melanoma, 14.7 µM in the assay on HL-60(TB) leukemia, 26.7 µM in the assay with MCF7 breast and above 100 µM in the assay with UO-31 renal. Moreover, the TGI in the assay with EKVX NSCLC is above 100 µM; with SK-MEL-5 melanoma it was 80.8 µM; in the assay with SF-539 CNS, above 100 µM; with MDA-MB-231 breast it was above 100 µM; in the assay with RPMI-8226 leukemia, 9.91 µM; in the assay on MALME-3M melanoma, 39.9 µM. Also, the TGI is 33.6 µM with UACC-62 melanoma, 37 µM in the assay on HL-60(TB) leukemia, above 100 µM with MCF7 breast and above 100 µM in the assay on UO-31 renal.
In the case of `C[C@]1(c2nc3c(C(N)=O)cccc3[nH]2)CCCN1`, the GI50 was above 100 µM with EKVX NSCLC; > 76.4 µM and 98.5 µM in the assay with SK-MEL-5 melanoma; 79.7 µM and > 100 µM with SF-539 CNS; 98.3 µM and > 100 µM in the assay with MDA-MB-231 breast; > 100 µM and 61.6 µM with RPMI-8226 leukemia; 43.4 µM and > 85.8 µM with MALME-3M melanoma. Moreover, the GI50 is above 100 µM in the assay with UACC-62 melanoma; 66.1 µM and > 100 µM with HL-60(TB) leukemia; 34.2 µM and > 71.3 µM in the assay on MCF7 breast; above 92.8 µM with UO-31 renal. The TGI was above 100 µM with EKVX NSCLC; above 100 µM with SK-MEL-5 melanoma; above 100 µM in the assay with SF-539 CNS; above 100 µM in the assay on MDA-MB-231 breast; above 100 µM in the assay with RPMI-8226 leukemia; 97.9 µM and > 100 µM in the assay on MALME-3M melanoma. The TGI in the assay on UACC-62 melanoma, in the assay on HL-60(TB) leukemia, with MCF7 breast and in the assay on UO-31 renal was above 100 µM each time.
For `CCCCCCCC(=O)Nc1nc2[nH]c(CN3CCN(Cc4cccc(I)c4)CC3)c(CN3CCN(Cc4cccc(I)c4)CC3)c2c(=O)[nH]1`, the GI50 in the assay on EKVX NSCLC was 0.835 µM; in the assay on SK-MEL-5 melanoma, 0.973 µM; in the assay with SF-539 CNS it was 0.88 µM; in the assay with MDA-MB-231 breast, 0.875 µM; in the assay with RPMI-8226 leukemia it was 0.531 µM; in the assay with MALME-3M melanoma it was 0.866 µM. Moreover, the GI50 with UACC-62 melanoma is 0.901 µM; in the assay on HL-60(TB) leukemia it was 0.924 µM; with MCF7 breast, 0.793 µM; in the assay on UO-31 renal it was 0.717 µM. Further, the TGI amounted to 1.67 µM with EKVX NSCLC; 1.9 µM with SK-MEL-5 melanoma; 1.61 µM in the assay with SF-539 CNS; 1.65 µM in the assay on MDA-MB-231 breast; 1.81 µM in the assay on RPMI-8226 leukemia; 1.7 µM with MALME-3M melanoma. Besides, the TGI in the assay on UACC-62 melanoma amounted to 1.66 µM; in the assay with HL-60(TB) leukemia, 2.27 µM; in the assay on MCF7 breast, 1.51 µM; with UO-31 renal, 1.41 µM.
Take `CC[C@H](C)[C@H](NC(=O)c1ncccn1)C(=O)N(C)[C@H](C[C@@H](OC(C)=O)c1nc(C(=O)N[C@@H](Cc2ccccc2)C[C@H](C)C(=O)OC)cs1)C(C)C`: the GI50 in the assay on EKVX NSCLC is 4.62 µM; in the assay on SK-MEL-5 melanoma, 0.848 µM; in the assay with SF-539 CNS it was 2.53 µM; in the assay with MDA-MB-231 breast, 1.4 µM; in the assay with RPMI-8226 leukemia, 0.793 µM; with MALME-3M melanoma, 1.29 µM. For the same compound, the GI50 in the assay with UACC-62 melanoma was 0.848 µM; in the assay on HL-60(TB) leukemia, 0.588 µM; with MCF7 breast it was 0.924 µM; in the assay with UO-31 renal it was 6.01 µM. For the same compound, the TGI was above 25 µM in the assay on EKVX NSCLC; 4.77 µM with SK-MEL-5 melanoma; 11.9 µM with SF-539 CNS; 10.9 µM with MDA-MB-231 breast; 3.98 µM with RPMI-8226 leukemia; above 25 µM in the assay with MALME-3M melanoma. Also, the TGI was above 25 µM with UACC-62 melanoma, 1.26 µM with HL-60(TB) leukemia, above 25 µM in the assay with MCF7 breast and above 25 µM in the assay on UO-31 renal.
Consider `CCC(CO)Nc1nc(NCc2ccccc2)c2n[nH]c(C(C)C)c2n1` (stereo not drawn), for which the GI50 was 12.1 µM with EKVX NSCLC; 4.91 µM in the assay with SK-MEL-5 melanoma; 12.7 µM in the assay with SF-539 CNS; 15.8 µM in the assay on MDA-MB-231 breast; 5.95 µM in the assay on RPMI-8226 leukemia; 13 µM in the assay on MALME-3M melanoma. In addition, the GI50 is 11.3 µM in the assay on UACC-62 melanoma, 4.87 µM in the assay with HL-60(TB) leukemia, 5.92 µM in the assay on MCF7 breast and 7.43 µM in the assay with UO-31 renal. In addition, the TGI in the assay on EKVX NSCLC is 27.4 µM; in the assay on SK-MEL-5 melanoma it was 17.3 µM; with SF-539 CNS, 26.1 µM; with MDA-MB-231 breast, 35.3 µM; with RPMI-8226 leukemia it was 29 µM; in the assay with MALME-3M melanoma it was 27.4 µM. The TGI was determined as 24.7 µM in the assay on UACC-62 melanoma, 21 µM in the assay with HL-60(TB) leukemia, 25.9 µM in the assay on MCF7 breast and 21.9 µM with UO-31 renal.
Take `CC1(C)CC[C@]2(C(=O)NCCNCCN)CC[C@]3(C)C(=CC[C@@H]4[C@@]5(C)CCC(=O)C(C)(C)[C@@H]5CC[C@]43C)[C@@H]2C1`: the GI50 with EKVX NSCLC is 1.74 µM; in the assay on SK-MEL-5 melanoma, 1.8 µM; with SF-539 CNS, 1.72 µM; with MDA-MB-231 breast, 1.82 µM; in the assay with RPMI-8226 leukemia, 2.44 µM; with MALME-3M melanoma, 1.83 µM. In addition, the GI50 was 1.69 µM in the assay on UACC-62 melanoma, 2.07 µM in the assay with HL-60(TB) leukemia, 1.55 µM with MCF7 breast and 1.65 µM in the assay on UO-31 renal. In addition, the TGI turned out to be 3.67 µM in the assay on EKVX NSCLC; 3.22 µM in the assay with SK-MEL-5 melanoma; 3.11 µM with SF-539 CNS; 3.35 µM in the assay on MDA-MB-231 breast; 6.26 µM with RPMI-8226 leukemia; 3.43 µM in the assay on MALME-3M melanoma. Besides, the TGI in the assay on UACC-62 melanoma stood at 3.14 µM; in the assay on HL-60(TB) leukemia, 4.71 µM; in the assay on MCF7 breast it was 3.08 µM; in the assay on UO-31 renal, 3.06 µM.
In the case of `O=C(Nc1ccc(Cl)cc1)c1cc(NCc2cc(O)ccc2O)ccc1O`, the GI50 with EKVX NSCLC was 5.5 µM; in the assay on SK-MEL-5 melanoma, 6.12 µM; in the assay with SF-539 CNS it was 1.73 µM; in the assay with MDA-MB-231 breast, 3.49 µM; in the assay with RPMI-8226 leukemia, 0.57 µM; with MALME-3M melanoma, 4.34 µM. Further, the GI50 in the assay on UACC-62 melanoma was 2.06 µM; with HL-60(TB) leukemia it was 1.4 µM; in the assay on MCF7 breast it was 3.87 µM; with UO-31 renal it was 1.45 µM. For the same compound, the TGI turned out to be 23.7 µM in the assay on EKVX NSCLC; 20 µM with SK-MEL-5 melanoma; 4.16 µM in the assay with SF-539 CNS; 13.6 µM in the assay with MDA-MB-231 breast; 4.41 µM in the assay on RPMI-8226 leukemia; 16.8 µM in the assay with MALME-3M melanoma. Also, the TGI with UACC-62 melanoma is 5.3 µM; with HL-60(TB) leukemia it was 4.86 µM; in the assay with MCF7 breast it was 25.5 µM; in the assay with UO-31 renal, 3.21 µM.
Turning to `C=C[C@@H]1CCC/C=C/[C@@H]2C[C@H](O)C[C@H]2[C@H](O)/C=C/C(=O)O1`, the GI50 with EKVX NSCLC is 0.543 µM; in the assay with SK-MEL-5 melanoma it was 0.175 µM; in the assay with SF-539 CNS, 0.65 µM; with MDA-MB-231 breast, 0.379 µM; in the assay with RPMI-8226 leukemia, 0.448 µM; with MALME-3M melanoma, 0.274 µM. The GI50 is 0.545 µM in the assay with UACC-62 melanoma, 2.23 µM in the assay on HL-60(TB) leukemia, 0.388 µM with MCF7 breast and 0.37 µM in the assay with UO-31 renal. Besides, the TGI in the assay on EKVX NSCLC was above 100 µM; in the assay with SK-MEL-5 melanoma, 0.331 µM; with SF-539 CNS, above 100 µM; in the assay with MDA-MB-231 breast it was 1.11 µM; in the assay on RPMI-8226 leukemia it was 3.4 µM; in the assay with MALME-3M melanoma it was 1.06 µM. In addition, the TGI was above 100 µM in the assay on UACC-62 melanoma, above 25.2 µM in the assay with HL-60(TB) leukemia and above 100 µM in the assay on UO-31 renal.
Regarding `COc1ccc(NC(=O)c2ccc(C(F)(F)F)nc2Nc2ccc(Cl)cc2C)cc1Cl`, the GI50 was 3.47 µM with EKVX NSCLC; 4.09 µM with SK-MEL-5 melanoma; 9.01 µM with SF-539 CNS; 1.64 µM with MDA-MB-231 breast; 2.07 µM with RPMI-8226 leukemia; 15.7 µM in the assay on MALME-3M melanoma. For the same compound, the GI50 in the assay on UACC-62 melanoma is 3.35 µM; with HL-60(TB) leukemia, 2.4 µM; in the assay on MCF7 breast it was 2.42 µM; with UO-31 renal, 4.39 µM. In addition, the TGI with EKVX NSCLC worked out at 16.5 µM; in the assay with SK-MEL-5 melanoma, 18.7 µM; in the assay with SF-539 CNS it was 23.5 µM; in the assay with MDA-MB-231 breast, 6.82 µM; in the assay on RPMI-8226 leukemia, 4.88 µM; in the assay with MALME-3M melanoma, 40.1 µM. Besides, the TGI came to 14.3 µM in the assay on UACC-62 melanoma, 5.37 µM in the assay with HL-60(TB) leukemia, 13.1 µM in the assay on MCF7 breast and 17.8 µM in the assay on UO-31 renal.
Regarding `Oc1cccc2ccc(SSc3ccc4cccc(O)c4n3)nc12`, the TGI in the assay on EKVX NSCLC is above 100 µM; with SK-MEL-5 melanoma, above 100 µM; with SF-539 CNS, 37.5 µM; with MDA-MB-231 breast, 32.3 µM; in the assay with RPMI-8226 leukemia it was above 100 µM; in the assay on MALME-3M melanoma, 30 µM. Further, the TGI was found to be 39.4 µM in the assay on UACC-62 melanoma, 56.7 µM in the assay on HL-60(TB) leukemia, 18.9 µM in the assay with MCF7 breast and 83.9 µM in the assay with UO-31 renal.
As to `Cn1cnc(SC2=CC(=O)C=C3S[C@H]4C[C@@]23c2c(c(O)c3c5c2=NCCC=5C=N3)N4)c1CC(N)C(=O)O` (stereo partly drawn), the GI50 in the assay on EKVX NSCLC is 19.3 µM; in the assay with SK-MEL-5 melanoma, 14.5 µM; with SF-539 CNS, 16.6 µM; with MDA-MB-231 breast, 6.6 µM; with RPMI-8226 leukemia, 16.3 µM; with MALME-3M melanoma, 2.37 µM. Besides, the GI50 with UACC-62 melanoma was 7.31 µM; with HL-60(TB) leukemia it was 3.18 µM; in the assay on UO-31 renal it was 16.4 µM. Further, the TGI in the assay on EKVX NSCLC was 34.3 µM; with SK-MEL-5 melanoma it was 27.6 µM; in the assay on SF-539 CNS it was 30.8 µM; in the assay with MDA-MB-231 breast, 20.3 µM; in the assay with RPMI-8226 leukemia, above 100 µM; in the assay with MALME-3M melanoma it was 5.04 µM. Further, the TGI in the assay on UACC-62 melanoma came out at 19.6 µM; in the assay with HL-60(TB) leukemia, 8.27 µM; in the assay with MCF7 breast it was 11.5 µM; with UO-31 renal it was 30.3 µM.
